From patent publication US12643906B2, “Fused aza-heterocyclic amide compound and use thereof” (CSPC ZHONGQI PHARMACEUTICAL TECHNOLOGY (SHIJIAZHUANG) CO., …, priority 2020, dated 2026)
Read-outs that look alike come from different tables or passages of the source.

Experiments:
[1] = biological target: T1, Ba/F3 LMNA-NTRK1-G667C (Homo sapiens, UniProt P04629, G667C, cells depend on it); assay: In vitro cell proliferation inhibition (MTT); assay type: cell-based, murine; conditions: 72 h, read-out: IC50 Ba/F3 LMNA-NTRK1-G667C
T1 construct: fused on or other part: P02545 (Prelamin-A/C)
Description: (§1) Cells in the logarithmic growth phase were harvested and counted using a […]. The cell suspension with a certain density was pipetted uniformly and seeded into a 96-well plate with each well of 100 μL, and shaken to make the cells uniformly disperse into the wells. 100 μL of compound solution with certain concentration gradient was added into each well, and 3 duplicate wells were set for each concentration. The plate was cultured in a CO2 incubator at 37° C. for 72 h. 20 μL of MTT working solution (5 mg/mL) was added into each well, and the plate was placed at 37° C. for 4 h, and centrifuged at 1000 rpm for 5 min by a plate centrifuge. After 180 μL of culture medium was discarded, the plate was added with 150 μL of DMSO, and mixed well with a microplate shaker, the plate bottom was wiped, and optical density (OD) at 550 nm was detected with a microplate reader.

[2] = biological target: T2, Ba/F3 ETV6-NTRK3-G623R (Homo sapiens, UniProt Q16288, G623R, cells depend on it); assay: In vitro cell proliferation inhibition (MTT); assay type: cell-based, murine; conditions: 72 h, read-out: IC50 Ba/F3 ETV6-NTRK3-G623R
T2 construct: fused on or other part: P41212 (Transcription factor ETV6)
Description: as §1

[3] = biological target: T3, Ba/F3 LMNA-NTRK1-G595R (Homo sapiens, UniProt P04629, G595R, cells depend on it); assay: In vitro cell proliferation inhibition (MTT); assay type: cell-based, murine; conditions: 72 h, read-out: IC50 Ba/F3 LMNA-NTRK1-G595R
T3 construct: fused on or other part: P02545 (Prelamin-A/C)
Description: as §1

[4] = biological target: T4, Ba/F3 ETV6-NTRK3-G696A (Homo sapiens, UniProt Q16288, G696A, cells depend on it); assay: In vitro cell proliferation inhibition (MTT); assay type: cell-based, murine; conditions: 72 h, read-out: IC50 Ba/F3 ETV6-NTRK3-G696A
T4 construct: fused on or other part: P41212 (Transcription factor ETV6)
Description: • Source of 6 kinds of cell lines for the test: KYinno Biotechnology (Beijing) Co., Ltd. • Cell type: murine B cells • Culture medium: RPMI-1640+10% FB S 2. Test Method
as §1

[5] = biological target: T5, Ba/F3 ETV6-NTRK2 (Homo sapiens, UniProt Q16620); assay: In vitro cell proliferation inhibition (MTT); assay type: cell-based, murine
T5 construct: fused on or other part: P41212 (Transcription factor ETV6)
Description: as §1

[6] = biological target: T6, Ba/F3 LMNA-NTRK1 (Homo sapiens, UniProt P04629); assay: In vitro cell proliferation inhibition (MTT); assay type: cell-based, murine; conditions: 72 h, read-out: IC50 Ba/F3 LMNA-NTRK1
T6 construct: fused on or other part: P02545 (Prelamin-A/C)
Description: as §1

[7] = biological target: T7, ALK (Homo sapiens, UniProt Q9UM73); assay: Kinase inhibition assay with fluorescein labeled peptide, ALK; assay type: biochemical
T7 construct: purchased Carna 08-105
Description: (§2) Compounds were diluted to a certain concentration in DMSO with 4-fold gradients. The compound with a certain concentration, an enzyme solution and DMSO were added into a 384-well plate, and the plate was incubated at room temperature for 10 min. […] The plate was subjected to reading.

[8] = biological target: T8, TRKC(G623R) (Homo sapiens, UniProt Q16288, G623R); assay: HTRF kinase inhibition assay, TRKC(G623R); assay type: biochemical
T8 construct: purchased Bioduro
Description: (§3) The compound to be tested with a certain concentration gradient and an enzyme solution were successively added into a plate (kinase buffer (1× kinase buffer (Cisbio, Cat #62EZBFDD), pH 7.5; 5 mM MgCl2, 1 mM DTT) was added into negative control wells), and the compound plate was centrifuged at 1000 rpm for 30 seconds. The plate was sealed and incubated in a Constant Temperature Incubator at 25° C. for 30 min. A substrate solution containing TK-Sub-biotin (Cisbio, Cat #61TKOBL) and ATP (Sigma, Cat #R0441) was prepared, the substrate solution was added into a 384-well plate, and the plate was centrifuged at 1000 rpm for 30 seconds. The plate was sealed and incubated in a Constant Temperature Incubator at 25° C. for 60 min.
(§4) TK antibody and XL665 were diluted, mixed and added into the assay plate, and the plate was centrifuged at 1000 rpm for 30 seconds. The plate was sealed and incubated in a Constant Temperature incubator Incubator at 25° C. for 60 min. The assay plate was placed on an Envision reader for reading. (HTRF 665/615 ratio: signal value at 665 nm/signal value at 615 nm) Inhibition=(rationegative control well−ratiocompound well)/(rationegative control well−ratioenzyme-free control well)×100% 1.3 Data Analysis and Curve Fitting
(§5) Data were fitted in XLFit excel add-in version 5.4.0.8 to obtain IC50 values.

[9] = biological target: T9, TRKC (Homo sapiens, UniProt Q16288); assay: HTRF kinase inhibition assay, TRKC; assay type: biochemical
T9 construct: purchased Bioduro
Description: as §3, §4, §5

[10] = biological target: T10, ROS1 (Homo sapiens, UniProt P08922); assay: Kinase inhibition assay with fluorescein labeled peptide, ROS1; assay type: biochemical
T10 construct: purchased Carna 08-163
Description: as §2

[11] = biological target: T11, TRKA (Homo sapiens, UniProt P04629); assay: HTRF kinase inhibition assay, TRKA; assay type: biochemical
T11 construct: purchased Bioduro
Description: as §3, §4, §5

[12] = biological target: T12, TRKB (Homo sapiens, UniProt Q16620); assay: HTRF kinase inhibition assay, TRKB; assay type: biochemical
T12 construct: purchased Bioduro
Description: as §3
(§6) TK antibody and XL665 were diluted, mixed and added into the assay plate, and the plate was centrifuged at 1000 rpm for 30 seconds. The plate was sealed and incubated in a Constant Temperature incubator Incubator at 25° C. for 60 min. The assay plate was placed on an Envision reader for reading.
as §5

[13] = biological target: T13, TRKA(G667C) (Homo sapiens, UniProt P04629, G667C); assay: HTRF kinase inhibition assay, TRKA(G667C); assay type: biochemical
T13 construct: purchased signalchem
Description: as §3, §4, §5

[14] = biological target: T14, TRKC(G696A) (Homo sapiens, UniProt Q16288, G696A); assay: HTRF kinase inhibition assay, TRKC(G696A); assay type: biochemical
T14 construct: purchased Bioduro
Description: as §3, §6, §5

[15] = biological target: T15, TRKA(G595R) (Homo sapiens, UniProt P04629, G595R); assay: HTRF kinase inhibition assay, TRKA(G595R); assay type: biochemical
T15 construct: purchased signalchem
Description: as §3, §4, §5

[16] = tested on: Ba/F3 LMNA-NTRK1-G595R model; conditions: 100 mg/kg, gavage
Description: (§7) The cells in the logarithmic growth phase were collected and re-suspending in serum-free culture medium to make the cell concentration at […] cells/mL. The cell suspension was added with equal volume of Matrigel to make the final cell concentration at 3×10^7-5×10^7 cells/mL. The animal model was established by subcutaneously inoculating 0.1 mL of tumor cell suspension in the axilla of the forelimb of NuNu mice (female, 4-6 weeks, Beijing Vital River Laboratory Animal Technology Co., Ltd.) in an amount of 3×10^6-5×10^6 cells/mouse.
(§8) The maximum and the minimum tumor diameters of the xenografts in nude mice were measured using a vernier caliper, and the tumor volume (TV) was calculated according to the formula: V=½×a×b^2, where a and b represent the maximum and minimum diameters of the tumor mass, respectively. Nude mice with appropriate tumor volume were selected and the mice were evenly divided into 7 groups of 6 mice (100-200 mm^3) by tumor volume using a random number method.
(§9) Tumor diameters were measured twice weekly and tumor volume was calculated. […] (where Ti represents the mean tumor volume of a certain administration group on a certain day; TO represents the mean tumor volume of the administration group at the start of administration, Vi represents the mean tumor volume of the vehicle control group on a certain day (same day as Ti) and V0 represents the mean tumor volume of the vehicle control group at the start of administration); • Tumor inhibition rate: at the end of the test, the animals were executed by removing the cervical vertebrae.

[17] = tested on: Ba/F3 LMNA-NTRK1-G667C model; conditions: gavage
Description: as §7, §8, §9

[18] = 72 h, read-out: IC50 Ba/F3 ETV6-NTRK2

| Structure (SMILES) | GI50 [1] [nM] | GI50 [2] [nM] | GI50 [3] [nM] | GI50 [4] [nM] | GI50 [5, 18] [nM] | GI50 [6] [nM] | further results |
| --- | --- | --- | --- | --- | --- | --- | --- |
| O=C(Nc1ccc(N2CCn3c(nnc3C(F)(F)F)C2)cc1)c1cnn2ccc(N3C[C@@H](F)C[C@@H]3c3cc(F)ccc3F)nc12 [Compound 23] | 4.93 | 0.852 | 0.525 | 0.435 |  |  |  |
| CCN1CCN(c2ccc(C(=O)Nc3cnn4ccc(N5CCC[C@@H]5c5cc(F)ccc5F)nc34)cc2)CC1 [Compound D1] | 307 | 24.8 | 289 | 258 | 6.09 | 1.6 |  |
| COc1cc(N2CCN(C)CC2)ccc1C(=O)Nc1cnn2ccc(N3CCC[C@@H]3c3cc(F)ccc3F)nc12 [Compound D2] | 42.7 | 46.5 | 230 | 202 | 13.4 | 1.03 |  |
| CN1CCN(c2ccc(C(=O)Nc3n[nH]c4ccc(Cc5cc(F)cc(F)c5)cc34)c(NC3CCOCC3)c2)CC1 [RXDX-101, Entrectinib] |  |  |  |  |  |  | GI50 ([5]; read-out: IC50 Ba/F3 ETV6-NTRK2, 72 h): 2.13 nM |
| CN1CCN(Cc2ccc(C(=O)Nc3cnn4ccc(N5CCC[C@@H]5c5cc(F)ccc5F)nc34)cc2)CC1 [Compound D3] | 316 | 207 | 522 | 542 | 17.4 | 8.68 |  |
| O=C(NC1CCN(C(=O)CO)CC1)c1cnn2ccc(N3C[C@@H](F)C[C@@H]3c3cccc(F)c3)nc12 [Compound D4] | ≥ 1000 | 17 | 65.9 | 141 | 14.9 | 9.52 |  |
| CC(C)(O)C(=O)N1CCC(c2ccc(NC(=O)c3cnn4ccc(N5C[C@@H](F)C[C@@H]5c5cc(F)ccc5F)nc34)cc2)CC1 [Compound 13] | 1.47 |  |  |  |  |  |  |
| O=C(Nc1ccc(N2CC[C@H](O)C2)cc1)c1cnn2ccc(N3C[C@@H](F)C[C@@H]3c3cc(F)ccc3F)nc12 [Compound 21] | 0.584 |  |  |  |  |  | IC50 [7]: 30 nM; IC50 [8]: 0.749 nM; IC50 [9]: 0.901 nM; IC50 [10]: 0.33 nM; IC50 [11]: 0.405 nM; IC50 [12]: 1.55 nM; IC50 [13]: 0.632 nM; IC50 [14]: 1.2 nM; IC50 [15]: < 0.169 nM |
| O=C(Nc1ccc(CN2CCN(C(=O)CO)CC2)cc1)c1cnn2ccc(N3C[C@@H](F)C[C@@H]3c3cc(F)ccc3F)nc12 [Compound 18, 5-((2R,4S)-2-(2,5-difluorophenyl)-4-fluoropyrrolidin-1-yl)-N-(4-(4-(2-(2-hydroxyacetyl)piperazin-1-yl)methyl)phenyl)pyrazolo[1,5-a]pyrimidine-3-carboxamide] | 3.43 |  |  |  |  |  |  |
| O=C(Nc1ccccc1)c1cnn2ccc(N3C[C@@H](F)C[C@@H]3c3cccc(F)c3)nc12 [Compound D5] | 413 | 13.3 | 4.59 | 90.8 | 12.2 | 2.14 |  |
| C[C@@H](O)C(=O)N1CCC(c2ccc(NC(=O)c3cnn4ccc(N5C[C@@H](F)C[C@@H]5c5cc(F)ccc5F)nc34)cc2)CC1 [Compound 12] | 1.53 | 0.237 | 0.215 | 0.112 | 1.13 | 0.635 |  |
| O=C(Nc1ccc(N2CCN(C(=O)C3CC3)CC2)cc1)c1cnn2ccc(N3C[C@@H](F)C[C@@H]3c3cc(F)ccc3F)nc12 [Compound 7] | 1.78 | 0.499 | 0.156 | 0.736 |  |  |  |
| C[C@@H]1CCc2ncc(F)cc2[C@H]2CCCN2c2ccn3ncc(c3n2)C(=O)N1 [LOXO-195, reference compound] | 112 | 4.54 |  | 4.5 | 2.89 | 9.08 | IC50 [7]: 391 nM; Number of animals (Survival/total) [16]: (6/6); Rate of weight gain (%) [16]: 8.59%; TGI (%) [16]: 124.6%; Tumor volume (mm^3) [16]: 66.3 ± 37.1 mm^3; Tumor weight [16]: 0.12 ± 0.06 g; Tumor weight inhibition rate (%) [16]: 76.58%; Number of animals (Survival/total) ([17]; 100 mg/kg): (6/6); Rate of weight gain (%) ([17]; 100 mg/kg): 2.38%; TGI (%) ([17]; 100 mg/kg): 36.4%; Tumor volume (mm^3) ([17]; 100 mg/kg): 381.2 ± 134.4 mm^3; Tumor weight ([17]; 100 mg/kg): 0.43 ± 0.18 g; Tumor weight inhibition rate (%) ([17]; 100 mg/kg): 21.57%; Number of animals (Survival/total) ([17]; 200 mg/kg): (5/6); Rate of weight gain (%) ([17]; 200 mg/kg): 7.88%; TGI (%) ([17]; 200 mg/kg): 95.4%; Tumor volume (mm^3) ([17]; 200 mg/kg): 154.5 ± 92.2 mm^3; Tumor weight ([17]; 200 mg/kg): 0.22 ± 0.16 g; Tumor weight inhibition rate (%) ([17]; 200 mg/kg): 59.96% |
| O=C(Nc1ccc(NC2COC2)cc1)c1cnn2ccc(N3C[C@@H](F)C[C@@H]3c3cc(F)ccc3F)nc12 [Compound 19, 5-((2R,4S)-2-(2,5-difluorophenyl)-4-fluoropyrrolidin-1-yl)-N-(4-(oxetan-3-ylamino)phenyl)pyrazolo[1,5-a]pyrimidine-3-carboxamide] | 1.19 | 0.426 | 0.208 | 0.321 | 0.866 | 0.416 | IC50 [7]: 39 nM; IC50 [8]: 0.241 nM; IC50 [9]: 0.724 nM; IC50 [10]: 0.23 nM; IC50 [11]: 0.265 nM; IC50 [12]: 0.984 nM; IC50 [13]: 0.308 nM; IC50 [14]: 0.936 nM; IC50 [15]: < 0.169 nM |
